melting point	Compound
125 to 130 °C	CNC(=O)c1cc(Oc2ccc(NC(=O)Nc3ccc(Oc4ccnc(C(=O)NC)c4)cc3)cc2)ccn1 [Entry 103, bis(4-(2-(N-methylcarbamoyl)-4-pyridyloxy)phenyl)urea]
228 to 230 °C	COC(=O)c1ccc(Oc2ccc(NC(=O)Nc3ccc(Cl)c(C(F)(F)F)c3)cc2)cn1 [Entry 55, N-(4-chloro-3-(trifluoromethyl)phenyl)-N′-(4-(2-(methoxycarbonyl)-5-pyridyloxy)phenyl)urea]
